pIC50: −log10 of the molar value. Where two headings read alike, the source gives them in different places.
How the values were obtained:
[1] = target: T1, His-GST-TVMV-hRIPK1(1-324) (Homo sapiens, UniProt Q13546); test: RIPK1 HTRF Binding Assay
T1 construct: The coding region of human RIPK1(1-324) flanked by NdeI site at 5′ end; made in house; host or cells: Spodoptera frugiperda (Sf9) insect cells, baculovirus
T1 sequence (Q13546 1-324): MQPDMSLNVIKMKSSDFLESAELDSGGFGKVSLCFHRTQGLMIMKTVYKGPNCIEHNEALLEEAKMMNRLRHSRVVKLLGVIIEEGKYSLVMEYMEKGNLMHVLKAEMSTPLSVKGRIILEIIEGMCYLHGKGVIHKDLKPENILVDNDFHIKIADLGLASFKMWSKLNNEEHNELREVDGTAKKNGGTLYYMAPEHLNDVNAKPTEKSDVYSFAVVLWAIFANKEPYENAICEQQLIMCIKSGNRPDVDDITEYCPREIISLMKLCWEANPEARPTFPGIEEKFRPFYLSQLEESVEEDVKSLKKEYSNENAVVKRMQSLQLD

[2] = system: MLKL phosphorylation in HT29-L23 human colorectal adenocarcinoma cells; test: MLKL Phosphorylation High-Content Assay; assay type: cell-based; details: Homo sapiens
Summary of the method: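 Cells incubated six hours at 37° C., then phospho-MLKL (S358) immunostained overnight at 4° C. and imaged by high-content microscopy. Phosphorylation quantified as mean circ-ring average intensity ratio; IC50 and Ymax from 4-parameter logistic fits.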

[3] = x marks IC50 class 20-200 nM, read-out: RIPK1 HTRF binding 20-200 nM
[4] = x marks IC50 class 20-200 nM, read-out: pMLKL cell activity 20-200 nM
[5] = x marks IC50 class >200 nM, read-out: pMLKL cell activity >200 nM
[6] = x marks IC50 class <20 nM, read-out: RIPK1 HTRF binding <20 nM
[7] = x marks IC50 class <20 nM, read-out: pMLKL cell activity <20 nM

Compound: [2H]C([2H])(NC(=O)c1cc(-c2ccn3nc(N)nc3c2)c(C)nc1OC)c1cccc(C(F)(F)F)c1 [Example 335, 5-(2-amino-[1,2,4]triazolo[1,5-a]pyridin-7-yl)-2-methoxy-6-methyl-N-((3-(trifluoromethyl)phenyl)methyl-d2)nicotinamide]
- pIC50 [1, 3]: 6.70 to 7.70
- pIC50 [2, 4]: 6.70 to 7.70

Compound: COc1nc(C)c(-c2ccn3nc(N)nc3c2)cc1C(=O)NCc1cc(C(F)(F)F)cc(Cl)c1F [Example 336, 5-(2-amino-[1,2,4]triazolo[1,5-a]pyridin-7-yl)-N-(3-chloro-2-fluoro-5-(trifluoromethyl)benzyl)-2-methoxy-6-methylnicotinamide]
- pIC50 [1, 3]: 6.70 to 7.70
- pIC50 [2, 4]: 6.70 to 7.70

Compound: COc1ccc(F)c(CNC(=O)c2cc(-c3ccn4nc(N)nc4c3)c(C)nc2OC)c1 [Example 337, 5-(2-amino-[1,2,4]triazolo[1,5-a]pyridin-7-yl)-N-(2-fluoro-5-methoxybenzyl)-2-methoxy-6-methylnicotinamide]
- pIC50 [1, 3]: 6.70 to 7.70
- pIC50 [2, 5]: < 6.70

Compound: COc1ncc(-c2ccn3nc(N)nc3c2)cc1C(=O)NCc1c(OCC2CC2)ccc(F)c1F [Example 338, 5-(2-amino-[1,2,4]triazolo[1,5-a]pyridin-7-yl)-N-(6-(cyclopropylmethoxy)-2,3-difluorobenzyl)-2-methoxynicotinamide]
- pIC50 [1, 6]: > 7.70
- pIC50 [2, 7]: > 7.70

Compound: COc1ncc(-c2ccn3nc(N)nc3c2)cc1C(=O)NCc1cc(F)ccc1OCC(F)(F)F [Example 339, 5-(2-amino-[1,2,4]triazolo[1,5-a]pyridin-7-yl)-N-(5-fluoro-2-(2,2,2-trifluoroethoxy)benzyl)-2-methoxynicotinamide]
- pIC50 [1, 6]: > 7.70
- pIC50 [2, 7]: > 7.70

Compound: COc1ncc(-c2ccn3nc(N)nc3c2)cc1C(=O)NCc1ccccc1OCC(C)C [Example 340, 5-(2-amino-[1,2,4]triazolo[1,5-a]pyridin-7-yl)-N-(2-isobutoxybenzyl)-2-methoxynicotinamide]
- pIC50 [1, 6]: > 7.70
- pIC50 [2, 4]: 6.70 to 7.70

Compound: COc1ncc(-c2ccn3nc(N)nc3c2)cc1C(=O)NCc1cc(F)cc(F)c1OC1CCCOC1 (stereo not drawn) [Example 342, 5-(2-amino-[1,2,4]triazolo[1,5-a]pyridin-7-yl)-N-(3,5-difluoro-2-((tetrahydro-2H-pyran-3-yl)oxy)benzyl)-2-methoxynicotinamide]
- pIC50 [1, 6]: > 7.70
- pIC50 [2, 4]: 6.70 to 7.70

Compound: COc1ncc(-c2ccn3nc(N)nc3c2)cc1C(=O)NCc1ccccc1OCC(F)(F)F [Example 343, 5-(2-amino-[1,2,4]triazolo[1,5-a]pyridin-7-yl)-2-methoxy-N-(2-(2,2,2-trifluoroethoxy)benzyl)nicotinamide]
- pIC50 [1, 6]: > 7.70
- pIC50 [2, 4]: 6.70 to 7.70

Compound: COc1ncc(-c2ccn3nc(N)nc3c2)cc1C(=O)NCc1cc(F)cc(F)c1OC1CC1 [Example 344, 5-(2-amino-[1,2,4]triazolo[1,5-a]pyridin-7-yl)-N-(2-cyclopropoxy-3,5-difluorobenzyl)-2-methoxynicotinamide]
- pIC50 [1, 6]: > 7.70
- pIC50 [2, 4]: 6.70 to 7.70

Compound: [2H]C([2H])([2H])[C@@H](NC(=O)c1cc(-c2ccn3nc(N)nc3c2)cnc1OC)c1cccc(OC(F)(F)F)c1 [Example 346, (R)-5-(2-amino-[1,2,4]triazolo[1,5-a]pyridin-7-yl)-2-methoxy-N-(1-(3-(trifluoromethoxy)phenyl)ethyl-2,2,2-d3)nicotinamide]
- pIC50 [1, 6]: > 7.70
- pIC50 [2, 4]: 6.70 to 7.70

Compound: [2H]C([2H])([2H])[C@H](NC(=O)c1cc(-c2ccn3nc(N)nc3c2)cnc1OC)c1cc(C(F)(F)F)ccc1F [Example 347, (S)-5-(2-amino-[1,2,4]triazolo[1,5-a]pyridin-7-yl)-N-(1-(2-fluoro-5-(trifluoromethyl)phenyl)ethyl-2,2,2-d3)-2-methoxynicotinamide]
- pIC50 [1, 3]: 6.70 to 7.70
- pIC50 [2, 4]: 6.70 to 7.70

Compound: COc1ncc(-c2ccn3nc(N)nc3c2)cc1C(=O)NCc1ccccc1COC(C)C [Example 348, 5-(2-amino-[1,2,4]triazolo[1,5-a]pyridin-7-yl)-N-(2-(isopropoxymethyl)benzyl)-2-methoxynicotinamide]
- pIC50 [1, 6]: > 7.70
- pIC50 [2, 4]: 6.70 to 7.70

Compound: [2H]C([2H])(NC(=O)c1cc(-c2ccn3nc(N)nc3c2)cnc1OC)c1cc(C(F)(F)F)ccc1F [Example 349, 5-(2-amino-[1,2,4]triazolo[1,5-a]pyridin-7-yl)-N-((2-fluoro-5-(trifluoromethyl)phenyl)methyl-d2)-2-methoxynicotinamide]
- pIC50 [1, 3]: 6.70 to 7.70
- pIC50 [2, 4]: 6.70 to 7.70

Compound: COc1nc(C)c(-c2ccn3nc(N)nc3c2)cc1C(=O)NCc1cc(F)cc(F)c1OC1CCCOC1 (stereo not drawn) [Example 350, 5-(2-amino-[1,2,4]triazolo[1,5-a]pyridin-7-yl)-N-(3,5-difluoro-2-((tetrahydro-2H-pyran-3-yl)oxy)benzyl)-2-methoxy-6-methylnicotinamide]
- pIC50 [1, 6]: > 7.70
- pIC50 [2, 7]: > 7.70

Compound: COc1nc(C)c(-c2ccn3nc(N)nc3c2)cc1C(=O)NCc1cc(F)cc(F)c1O[C@H]1CCOC1 [Example 351, (S)-5-(2-amino-[1,2,4]triazolo[1,5-a]pyridin-7-yl)-N-(3,5-difluoro-2-((tetrahydrofuran-3-yl)oxy)benzyl)-2-methoxy-6-methylnicotinamide]
- pIC50 [1, 6]: > 7.70
- pIC50 [2, 7]: > 7.70

Compound: COc1nc(C)c(-c2ccn3nc(N)nc3c2)cc1C(=O)NCc1cc(F)cc(F)c1OC1CCOC(C)C1 (stereo not drawn) [Example 352, 5-(2-amino-[1,2,4]triazolo[1,5-a]pyridin-7-yl)-N-(3,5-difluoro-2-((2-methyltetrahydro-2H-pyran-4-yl)oxy)benzyl)-2-methoxy-6-methylnicotinamide]
- pIC50 [1, 6]: > 7.70
- pIC50 [2, 4]: 6.70 to 7.70

Compound: COc1nc(C)c(-c2ccn3nc(N)nc3c2)cc1C(=O)NCc1cc(F)cc(F)c1OC1CC(C)OC(C)C1 (stereo not drawn) [Example 353, 5-(2-amino-[1,2,4]triazolo[1,5-a]pyridin-7-yl)-N-(2-((2,6-dimethyltetrahydro-2H-pyran-4-yl)oxy)-3,5-difluorobenzyl)-2-methoxy-6-methylnicotinamide]
- pIC50 [1, 6]: > 7.70
- pIC50 [2, 4]: 6.70 to 7.70

Compound: COc1nc(C)c(-c2ccn3nc(N)nc3c2)cc1C(=O)NCc1cc(F)cc(F)c1O[C@@H]1CCOC1 [Example 354, (R)-5-(2-amino-[1,2,4]triazolo[1,5-a]pyridin-7-yl)-N-(3,5-difluoro-2-((tetrahydrofuran-3-yl)oxy)benzyl)-2-methoxy-6-methylnicotinamide]
- pIC50 [1, 6]: > 7.70
- pIC50 [2, 4]: 6.70 to 7.70

Compound: COc1nc(C)c(-c2ccn3nc(N)nc3c2)cc1C(=O)NCc1cccc(F)c1CN1CCOCC1 [Example 355, 5-(2-amino-[1,2,4]triazolo[1,5-a]pyridin-7-yl)-N-(3-fluoro-2-(morpholinomethyl)benzyl)-2-methoxy-6-methylnicotinamide]
- pIC50 [1, 6]: > 7.70
- pIC50 [2, 4]: 6.70 to 7.70

Compound: COc1nc(C)c(-c2ccn3nc(N)nc3c2)cc1C(=O)NCc1cccc(F)c1OC1C[C@@H](C)O[C@@H](C)C1 (stereo partly drawn) [Example 356, 5-(2-amino-[1,2,4]triazolo[1,5-a]pyridin-7-yl)-N-(2-(((2R,6S)-2,6-dimethyltetrahydro-2H-pyran-4-yl)oxy)-3-fluorobenzyl)-2-methoxy-6-methylnicotinamide]
- pIC50 [1, 3]: 6.70 to 7.70
- pIC50 [1, 6]: > 7.70
- pIC50 [2, 5]: < 6.70

Compound: COc1nc(C)c(-c2ccn3nc(N)nc3c2)cc1C(=O)NCc1ccccc1CN1CCCCC1 [Example 358, 5-(2-amino-[1,2,4]triazolo[1,5-a]pyridin-7-yl)-2-methoxy-6-methyl-N-(2-(piperidin-1-ylmethyl)benzyl)nicotinamide]
- pIC50 [1, 3]: 6.70 to 7.70
- pIC50 [2, 5]: < 6.70

Compound: COc1nc(C)c(-c2ccn3nc(N)nc3c2)cc1C(=O)NCc1cc(F)cc(F)c1O[C@@H]1CCN(C)C1 [Example 359, (R)-5-(2-amino-[1,2,4]-triazolo[1,5-a]pyridin-7-yl)-N-(3,5-difluoro-2-((1-methylpyrrolidin-3-yl)oxy)benzyl)-2-methoxy-6-methylnicotinamide]
- pIC50 [1, 3]: 6.70 to 7.70
- pIC50 [2, 5]: < 6.70

Compound: COc1ncc(-c2ccn3nc(N)nc3c2)cc1C(=O)NCc1cc(F)cc(F)c1O[C@H]1CCOC1 [Example 360, (S)-5-(2-amino-[1,2,4]triazolo[1,5-a]pyridin-7-yl)-N-(3,5-difluoro-2-((tetrahydrofuran-3-yl)oxy)benzyl)-2-methoxynicotinamide]
- pIC50 [1, 6]: > 7.70
- pIC50 [2, 4]: 6.70 to 7.70

Compound: COc1ncc(-c2ccn3nc(N)nc3c2)cc1C(=O)NCc1cc(F)cc(F)c1OC1CCOC(C)C1 (stereo not drawn) [Example 361, 5-(2-amino-[1,2,4]triazolo[1,5-a]pyridin-7-yl)-N-(3,5-difluoro-2-((2-methyltetrahydro-2H-pyran-4-yl)oxy)benzyl)-2-methoxynicotinamide]
- pIC50 [1, 6]: > 7.70
- pIC50 [2, 4]: 6.70 to 7.70

Compound: COc1ncc(-c2ccn3nc(N)nc3c2)cc1C(=O)NCc1cc(F)cc(F)c1OC1CC(C)OC(C)C1 (stereo not drawn) [Example 362, 5-(2-amino-[1,2,4]triazolo[1,5-a]pyridin-7-yl)-N-(2-((2,6-dimethyltetrahydro-2H-pyran-4-yl)oxy)-3,5-difluorobenzyl)-2-methoxynicotinamide]
- pIC50 [1, 3]: 6.70 to 7.70
- pIC50 [2, 4]: 6.70 to 7.70

Reference: patent US10913738B2 (BRISTOL-MYERS SQUIBB COMPANY, priority 2017, dated 2021)
